PubChem BioAssay (NCI)
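96-well plates; 48 h exposure; 5 concentrations. Endpoints by linear interpolation between flanking doses. Not reached: highest tested concentration assigned. TGI is the concentration that stops growth completely.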

How the values were obtained:
Assay in all cases: DTP human tumour cell line panel, 48 h
786-0 renal = tested on: 786-0 renal
A498 renal = tested on: A498 renal
A549 NSCLC = tested on: A549 NSCLC
ACHN renal = tested on: ACHN renal
CAKI-1 renal = tested on: CAKI-1 renal
CCRF-CEM leukemia = tested on: CCRF-CEM leukemia
COLO 205 colon = tested on: COLO 205 colon
DLD-1 colon = tested on: DLD-1 colon
DMS 114 small cell lung = tested on: DMS 114 small cell lung
DMS 273 small cell lung = tested on: DMS 273 small cell lung
EKVX NSCLC = tested on: EKVX NSCLC
HCC-2998 colon = tested on: HCC-2998 colon
HCT-116 colon = tested on: HCT-116 colon
HCT-15 colon = tested on: HCT-15 colon
HL-60(TB) leukemia = tested on: HL-60(TB) leukemia
HOP-62 NSCLC = tested on: HOP-62 NSCLC
HT29 colon = tested on: HT29 colon
IGROV1 ovarian = tested on: IGROV1 ovarian
K-562 leukemia = tested on: K-562 leukemia
KM12 colon = tested on: KM12 colon
LOX IMVI melanoma = tested on: LOX IMVI melanoma
LXFL 529 NSCLC = tested on: LXFL 529 NSCLC
M14 melanoma = tested on: M14 melanoma
M19-MEL melanoma = tested on: M19-MEL melanoma
MALME-3M melanoma = tested on: MALME-3M melanoma
MOLT-4 leukemia = tested on: MOLT-4 leukemia
NCI-H226 lung = tested on: NCI-H226 lung
NCI-H23 lung = tested on: NCI-H23 lung
NCI-H460 lung = tested on: NCI-H460 lung
NCI-H522 lung = tested on: NCI-H522 lung
OVCAR-3 ovarian = tested on: OVCAR-3 ovarian
OVCAR-4 ovarian = tested on: OVCAR-4 ovarian
OVCAR-8 ovarian = tested on: OVCAR-8 ovarian
RPMI-8226 leukemia = tested on: RPMI-8226 leukemia
SF-268 CNS = tested on: SF-268 CNS
SF-295 CNS = tested on: SF-295 CNS
SF-539 CNS = tested on: SF-539 CNS
SK-MEL-2 melanoma = tested on: SK-MEL-2 melanoma
SK-MEL-28 melanoma = tested on: SK-MEL-28 melanoma
SK-MEL-5 melanoma = tested on: SK-MEL-5 melanoma
SK-OV-3 ovarian = tested on: SK-OV-3 ovarian
SN12C renal = tested on: SN12C renal
SNB-19 CNS = tested on: SNB-19 CNS
SW-620 colon = tested on: SW-620 colon
U251 CNS = tested on: U251 CNS
UACC-257 melanoma = tested on: UACC-257 melanoma
UACC-62 melanoma = tested on: UACC-62 melanoma
UO-31 renal = tested on: UO-31 renal
XF 498 CNS = tested on: XF 498 CNS
HOP-92 NSCLC = tested on: HOP-92 NSCLC
KM20L2 colon = tested on: KM20L2 colon
OVCAR-5 ovarian = tested on: OVCAR-5 ovarian
SNB-75 CNS = tested on: SNB-75 CNS
SNB-78 CNS = tested on: SNB-78 CNS
SR leukemia = tested on: SR leukemia
TK-10 renal = tested on: TK-10 renal

Measured: TGI

CCOC(=O)CC[C@H](NC(=O)c1[nH]cnc1/N=N/N(C)C)C(=O)OCC
> 100 µM: 786-0 renal | A498 renal | A549 NSCLC | ACHN renal | CAKI-1 renal | CCRF-CEM leukemia | COLO 205 colon | DLD-1 colon | DMS 114 small cell lung | DMS 273 small cell lung | EKVX NSCLC | HCC-2998 colon | HCT-116 colon | HCT-15 colon | HL-60(TB) leukemia | HOP-62 NSCLC | HT29 colon | IGROV1 ovarian | K-562 leukemia | KM12 colon | LOX IMVI melanoma | LXFL 529 NSCLC | M14 melanoma | M19-MEL melanoma | MALME-3M melanoma | MOLT-4 leukemia | NCI-H226 lung | NCI-H23 lung | NCI-H460 lung | NCI-H522 lung | OVCAR-3 ovarian | OVCAR-4 ovarian | OVCAR-8 ovarian | RPMI-8226 leukemia | SF-268 CNS | SF-295 CNS | SF-539 CNS | SK-MEL-2 melanoma | SK-MEL-28 melanoma | SK-MEL-5 melanoma | SK-OV-3 ovarian | SN12C renal | SNB-19 CNS | SW-620 colon | U251 CNS | UACC-257 melanoma | UACC-62 melanoma | UO-31 renal | XF 498 CNS

O=c1[nH]cnc2c1sc(=S)n2-c1ccccc1
> 100 µM: 786-0 renal | A498 renal | A549 NSCLC | ACHN renal | CAKI-1 renal | CCRF-CEM leukemia | COLO 205 colon | DLD-1 colon | DMS 114 small cell lung | DMS 273 small cell lung | EKVX NSCLC | HCC-2998 colon | HCT-116 colon | HCT-15 colon | HL-60(TB) leukemia | HOP-62 NSCLC | HOP-92 NSCLC | HT29 colon | IGROV1 ovarian | K-562 leukemia | KM12 colon | KM20L2 colon | LOX IMVI melanoma | LXFL 529 NSCLC | M14 melanoma | M19-MEL melanoma | MALME-3M melanoma | MOLT-4 leukemia | NCI-H226 lung | NCI-H23 lung | NCI-H460 lung | NCI-H522 lung | OVCAR-3 ovarian | OVCAR-4 ovarian | OVCAR-5 ovarian | OVCAR-8 ovarian | SF-268 CNS | SF-295 CNS | SF-539 CNS | SK-MEL-2 melanoma | SK-MEL-28 melanoma | SK-MEL-5 melanoma | SK-OV-3 ovarian | SN12C renal | SNB-19 CNS | SNB-75 CNS | SNB-78 CNS | SR leukemia | SW-620 colon | TK-10 renal | U251 CNS | UACC-257 melanoma | UACC-62 melanoma | UO-31 renal | XF 498 CNS
